From patent US20080008716A1, “Combined Pharmaceutical Composition Comprising an Anti-4-1BB Monoclonal Antibody and Chemotherapeutic Anti-Cancer Agent for Preventing and Treating Cancer Disease” (ULSAN INDUSTRIAL EDUCATION FOUNDATION, priority 2006, published 2008)

Columns and labels:
B16F10 melanoma cell [1] = test: Anticancer effect of anti-4-1BB antibody combined with other chemotherapeutic anti-cancer agents; tumor size and survival; details: for growth rate of cancer tissue / anticancer effect / activity / survival rate of mice: given simultaneously with B16F10, FIG. 3; for growth rate of cancer tissue: chemotherapeutic once (Cis 50 or 200 μg, 5-FU 800 or 10,000 μg, irinotecan 2 mg, paclitaxel 200 or 500 μg i.p.; Doxo 200 or 400 μg i.v.), antibody 100 μg, vs rat IgG control; for anticancer effect / activity / survival rate of mice: same doses as E16
Experimental: 4×10^5 cells of B16F10 melanoma cell were injected to the back of C57BL/6 mice to occur tumor in a similar method in
At the same time, 100 μg of anti-4-1BB monoclonal antibody and/or 50 or 200 μg of cisplatin, 800 or 10,000 μg of 5-fluorouracil (5-FU), 2 mg of irinotecan and 200 or 500 μg of paclitaxel (Taxel) were intraperitoneally injected into the mice once respectively and the anti-4-1BB monoclonal antibody was further injected into the peritoneal cavity at 6 times per every 5 days. 100 μg of anti-4-1BB monoclonal antibody and/or 200 or 400 μg of Doxorubicin (Doxo) were injected into the vein and an anti-4-1BB monoclonal antibody was injected into the peritoneal cavity at 6 times per every 5 days. The size of tumor and the survival rates of the mice were analyzed during the test period (See FIG. 3).

[2] = system: draining lymph node cell (CD4 and CD8 T cells); test: Lymphocyte repopulation: cell number, CD4 and CD8 T cells in draining lymph node of tumor-bearing mice; assay type: in vivo, C57BL/6 mice
Experimental: The ratio of immune cell in each sample was analyzed with FACScan (BD Bioscience, USA), and the number of infiltrated CD4+ CD8+ T cells in tumor tissue was calculated by following Math FIG. 1
Accordingly, it was anticipated that the sustainable treatment effect of cancer by the combined treatment with CTX and anti-4-1BB antibody would be involved in the repopulation of T cell showing anticancer activity.

B16F10 melanoma cell [3] = system: B16F10 melanoma cell
Experimental: (§1) C57BL/6 male mice (Harlan Laboratories, Indianapolis, Ind.) were used as an experiment animal. The mice had been bred allowing freely accessible to water and feed and maintaining the temperature to 21±2° C. in 12 hours of light/dark cycle before use in test. B16F10(ATCC CRL-6475, USA), a melanoma cell line of mouse, was cultured in DMEM medium (Dulbeco's modified eagle's medium, GIBCO BRL, USA) containing 10% FBS (Fetal Bovine Serum; Gibco BRL, NY), 2 mM L-glutamine, 100 U/l penicillin (Invitrogen, USA) and 100 μg/ml streptomycin (Invitrogen, USA).
(§2) 4×10^5 cells of B16F10 melanoma cell were subcutaneously injected to the back of mice to occur tumor. At the same time, 100 μg of anti-4-1BB monoclonal antibody and 3 mg of CTX were intraperitoneally injected into the mice and the antibody was further injected thereto at the interval of five days. […] The size and survival rate of the mice were periodically determined.
3 mg of CTX were injected into the peritoneal cavity of the mice at 5th days and 10th days after injecting cancer cells, anti 4-1BB antibody was injected into the peritoneal cavity at 6 times per every 5 days from 5th days or 10th days after injecting cancer cells.

IFN-γ = IFN-γ expression of CD4 and CD8 T cells of draining lymph node (intracellular staining, FACScan); details: 17th day after treating, FIG. 5a
Experimental: At 1st, 2nd, 4th, 8th, 12th, 16th, 20th, 24th days after the injection, the closest draining lymph node (inguinal lymph node) to tumor tissue in each group was isolated from the mice to determine the expression of IFN-γ (Kim Y H et al., Cell. Immunol., 238(2), pp 76˜86, 2005). To stain the IFN-γ cytokine in cell, lymph-node cell suspension was prepared from each group and the separated cells were cultured in culture medium containing Brefeldin A (BD Bioscience, USA) for 6 hours after treating with 50 ng/ml of PMA and 500 mg/ml of Ionomycin (Sigma, USA). […] The cells was then stained with anti-IFN-γ-PE (eBioscience, USA) using by Cytofix/cytoperm (BD Pharmingen, USA) with the manual of manufacturing company and analyzed with FACScan (BD Bioscience, USA).
3 mg of CTX and/or 100 μg of anti-4-1BB antibody were treated to the tumor-injected mice once and the cell was separated from the experimental group at 17th day when the cell started to launch the repopulation after treating with CTX and at 22nd day when the repopulation of the cell in lymph node was enough and the expression of IFN-γ was analyzed with FACScan (BD Bioscience, USA) with the method disclosed in Example 3.

B16F10 melanoma cell [4] = system: B16F10 melanoma cell; remark: listed apart in the source
Experimental: as §1, §2
At the same time, 100 μg of anti-4-1BB monoclonal antibody and 3 mg of CTX were intraperitoneally injected to the mice once and anti-4-1BB monoclonal antibody was injected into the peritoneal cavity at 6 times per every 5 days. The tumor size and the survival rates of mice were analyzed during the test period (See FIG. 1)

COc1cccc2c1C(=O)c1c(O)c3c(c(O)c1C2=O)C[C@@](O)(C(=O)CO)C[C@@H]3O[C@H]1C[C@H](N)[C@H](O)[C@H](C)O1 [Doxorubicin]
growth rate of cancer tissue (B16F10 melanoma cell [1]): had been decreased
anticancer effect / activity (B16F10 melanoma cell [1]): strong anticancer effect in a dose dependent manner
survival rate of mice (B16F10 melanoma cell [1]): remarkably increased

CCc1c2c(nc3ccc(OC(=O)N4CCC(N5CCCCC5)CC4)cc13)-c1cc3c(c(=O)n1C2)COC(=O)[C@]3(O)CC [Irinotecan, irinotecan]
time within which most of mice died (B16F10 melanoma cell [1]; 2 mg irinotecan i.p. once): ≤ 30 days
anticancer effect / activity (B16F10 melanoma cell [1]): strong anticancer effect in a dose dependent manner

CC(=O)O[C@H]1C(=O)[C@@]2(C)[C@H]([C@H](OC(=O)c3ccccc3)[C@]3(O)C[C@H](OC(=O)[C@H](O)[C@@H](NC(=O)c4ccccc4)c4ccccc4)C(C)=C1C3(C)C)[C@]1(OC(C)=O)CO[C@@H]1C[C@@H]2O [Paclitaxel, paclitaxel]
growth rate of cancer tissue (B16F10 melanoma cell [1]): slightly slowed
anticancer effect / activity (B16F10 melanoma cell [1]): a little lower inhibiting effect of the growth of B16-F10 melanoma comparing with other anticancer agents
survival rate of mice (B16F10 melanoma cell [1]): slightly increased

O=c1[nH]cc(F)c(=O)[nH]1 [5-FU, 5-fluorouracil]
growth rate of cancer tissue (B16F10 melanoma cell [1]): decreased in a dose dependent manner
survival rate of mice (B16F10 melanoma cell [1]): increased

O=P1(N(CCCl)CCCl)NCCCO1 (stereo not drawn) [CTX, cyclophosphamide]
number of cell in lymph node ([2]; B16F10-bearing mice, FIG. 4a): temporarily been decreased
time after injecting cancer cell at which number of cell in lymph node increased ([2]; B16F10-bearing mice, FIG. 4a): around 16 days
level of lymph node cell number comparing with mice treated with rat IgG or anti-4-1BB ([2]; after recovery of the cell number): less than ½ to ⅕
day after which number of CD4 and CD8 T cell was recovered to normal range ([2]; draining lymph node): > 14 days
number of CD4 and CD8 T cell ([2]; draining lymph node, FIG. 4b, 4c): decreased
anti-cancer activity (B16F10 melanoma cell [3]; treatment at 5th day after injecting cancer cell): did not show any effect on the anti-cancer activity
growth of tumor (B16F10 melanoma cell [3]; treatment from 10th day after injecting cancer cells, FIG. 2c): did not show any change
survival of mice (B16F10 melanoma cell [3]; treatment from 10th day after injecting cancer cells, FIG. 2d): did not show any change
IFN-γ expression of T cell (IFN-γ): 2 to 3%
growing rate of tumor / growth of cancer (B16F10 melanoma cell [4]; treatment at the same time as 4×10^5 B16F10 cells, 100 μg antibody i.p. 6 times per every 5 days, 3 mg CTX i.p. once, FIG. 1): potent inhibiting effect on the growth of cancer
day after injecting cancer cells until which tumor size was not increased (B16F10 melanoma cell [4]; treatment at the same time as B16F10 injection): 30 days
survival of mice extended for (B16F10 melanoma cell [4]; treatment at the same time as B16F10 injection, versus mice injected with only B16F10 (all died around 30th day)): 20 days

N.N.[Cl][Pt][Cl] [cisplatin]
growth rate of cancer tissue (B16F10 melanoma cell [1]): decreased in a dose dependent manner
survival rate of mice (B16F10 melanoma cell [1]): partly increased
